From patent US20110201564A1, “SUBSTITUTED 7-SULFANYLMETHYL, 7-SULFINYLMETHYL AND 7-SULFONYLMETHYL INDOLES AND USE THEREOF” (BAYER SCHERING PHARMA AKTIENGESELLSCHAFT, priority 2008, published 2011)

How the values were obtained:
Format in all cases: cell-based
[1] = target: T1, human mineralocorticoid receptor (MR) (Homo sapiens, UniProt P08235); experiment: Cellular in vitro assay, GAL4-MR chimera luciferase reporter in CHO K1 cells (inhibitory MR activity); conditions: antagonism vs aldosterone; CHO K1 GAL4-MR LBD luciferase reporter
T1 construct: expressed in transfected cells; host or cells: CHO K1
T1 sequence (P08235 734-984 limits assumed): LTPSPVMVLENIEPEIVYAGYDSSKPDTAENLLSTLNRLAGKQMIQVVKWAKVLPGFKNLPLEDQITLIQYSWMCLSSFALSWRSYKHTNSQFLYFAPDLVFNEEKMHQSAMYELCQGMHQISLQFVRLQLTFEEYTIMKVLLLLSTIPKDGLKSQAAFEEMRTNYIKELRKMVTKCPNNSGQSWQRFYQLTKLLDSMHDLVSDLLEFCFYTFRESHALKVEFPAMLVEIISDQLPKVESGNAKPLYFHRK
From the text: (§1) 1. Cellular In Vitro Assay to Determine the Inhibitory MR Activity and MR Selectivity Compared with Other Steroid Hormone Receptors
(§2) Antagonists of the human mineralocorticoid receptor (MR) are identified, and the activity of the compounds described herein is quantified with the aid of a recombinant cell line. The cell is originally derived from a hamster ovary epithelial cell (Chinese Hamster Ovary, CHO K1, ATCC: American Type Culture Collection, VA 20108, USA).
(§3) An established chimera system in which the ligand-binding domains of human steroid hormone receptors are fused to the DNA-binding domain of the yeast transcription factor GAL4 is used in this CHO K1 cell line. The GAL4-steroid hormone receptor chimeras produced in this way are cotransfected and stably expressed with a reporter construct in the CHO cells.
(§4) To generate the GAL4-steroid hormone receptor chimeras, the GAL4 DNA-binding domain (amino acids 1-147) from the vector pFC2-dbd (from Stratagene) is cloned with the PCR-amplified ligand-binding domains of the mineralocorticoid receptor (MR, amino acids 734-985), of the progesterone receptor (PR, amino acids 680-933) and of the androgen receptor (AR, amino acids 667-919) into the vector pIRES2 (from Clontech). The reporter construct, which comprises five copies of the GAL4 binding site upstream of a thymidine kinase promoter, leads to expression of firefly luciferase (Photinus pyralis) after activation and binding of the GAL4-steroid hormone receptor chimeras by the respective specific agonists aldosterone (MR), dexamethasone (GR), progesterone (PR) and dihydrotestosterone (AR).
(§5) The MR, PR and AR cells are plated out in medium (Optimem, 2.5% FCS, 2 mM glutamine, 10 mM HEPES) in 96- (or 384- or 1536-)well microtiter plates on the day before the assay and are kept in a cell incubator (96% humidity, 5% v/v CO2, 37° C.). On the day of the assay, the substances to be tested are taken up in the abovementioned medium and added to the cells. About 10 to 30 minutes after addition of the test substances, the respective specific agonists of the steroid hormone receptors are added. After a further incubation time of 5 to 6 hours, the luciferase activity is measured with the aid of a video camera. The measured relative light units as a function of the substance concentration result in a sigmoidal stimulation curve. The IC50 values are calculated with the aid of the GraphPad PRISM computer program (Version 3.02).

androgen receptor (AR) = target: T2, androgen receptor (AR) (Homo sapiens, UniProt P10275); experiment: Cellular in vitro assay, GAL4-AR chimera luciferase reporter in CHO K1 cells (selectivity); conditions: antagonism vs dihydrotestosterone; CHO K1 GAL4-AR LBD luciferase reporter
T2 construct: of the androgen receptor (AR, amino acids 667-919); expressed in transfected cells; host or cells: CHO K1
T2 sequence (P10275 668-920): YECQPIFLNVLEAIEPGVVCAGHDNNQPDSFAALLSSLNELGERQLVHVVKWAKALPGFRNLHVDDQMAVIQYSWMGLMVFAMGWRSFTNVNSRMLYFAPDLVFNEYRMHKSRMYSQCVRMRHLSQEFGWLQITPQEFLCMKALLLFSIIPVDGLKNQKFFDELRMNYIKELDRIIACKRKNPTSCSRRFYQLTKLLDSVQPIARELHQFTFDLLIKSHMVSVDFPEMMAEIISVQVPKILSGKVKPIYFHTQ
From the text: as §1, §2, §3, §4, §5

[2] = target: T3, progesterone receptor (PR) (Homo sapiens, UniProt P06401); experiment: Cellular in vitro assay, GAL4-PR chimera luciferase reporter in CHO K1 cells (selectivity); conditions: antagonism vs progesterone; CHO K1 GAL4-PR LBD luciferase reporter
T3 construct: of the progesterone receptor (PR, amino acids 680-933); expressed in transfected cells; host or cells: CHO K1
T3 sequence (P06401 680-933): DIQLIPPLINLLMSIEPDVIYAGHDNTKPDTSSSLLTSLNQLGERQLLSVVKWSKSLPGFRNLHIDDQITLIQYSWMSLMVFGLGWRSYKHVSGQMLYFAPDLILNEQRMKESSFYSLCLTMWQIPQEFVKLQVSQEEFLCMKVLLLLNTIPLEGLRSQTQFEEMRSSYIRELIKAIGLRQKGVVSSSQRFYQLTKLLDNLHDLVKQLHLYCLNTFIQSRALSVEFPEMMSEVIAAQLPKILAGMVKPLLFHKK
From the text: as §1, §2, §3, §4, §5

IC50 [1] [nM] | IC50 (androgen receptor (AR)) [nM] | IC50 [2] [nM] | Structure (SMILES)
50 | 2230 | 2320 | Cc1cc(Cl)ccc1C(CCO)c1c[nH]c2c(CS(C)(=O)=O)cccc12 (stereo not shown) [Example 26, 3-(4-Chloro-2-methylphenyl)-3-{7-[(methylsulfonyl)methyl]-1H-indol-3-yl}propan-1-ol]
140 | 6440 | 4580 | CCC(CCO)(c1ccc(Cl)cc1)c1c[nH]c2c(C[S+](C)[O-])cccc12 (mixture of isomers) [Example 143, 3-(4-Chlorophenyl)-3-{7-[(methylsulfinyl)methyl]-1H-indol-3-yl}pentan-1-ol]
12 | 520 | 7530 | CS(=O)(=O)Cc1cccc2c(C(c3ccc(Cl)cc3Cl)C3CC3(F)F)c[nH]c12 (single isomer, unassigned) [Example 325-1-1, 3-[(2,4-Dichlorophenyl)(2,2-difluorocyclopropyl)methyl]-7-[(methylsulfonyl)methyl]-1H-indole]
420 | 5220 | 6590 | CS(=O)(=O)Cc1cccc2c(C(CCC#N)c3ccc4ccccc4c3)c[nH]c12 (stereo not shown) [Example 69, 4-{7-[(Methylsulfonyl)methyl]-1H-indol-3-yl}-4-(naphthalen-2-yl)butanonitrile]
40 | 5310 | 11700 | CC(c1ccc(Cl)cc1)(c1c[nH]c2c(CS(C)(=O)=O)cccc12)C1CC1C#N (stereo not shown) [Example 106, 2-[1-(4-Chlorophenyl)-1-{7-[(methylsulfonyl)methyl]-1H-indol-3-yl}ethyl]cyclopropanecarbonitrile]
59 | 5250 | 6660 | CS(=O)(=O)Cc1cccc2c(C(c3ccc(Cl)cc3Cl)C3CC3(F)F)c[nH]c12 (single isomer, unassigned) [Example 325-2, 3-[(2,4-Dichlorophenyl)(2,2-difluorocyclopropyl)methyl]-7-[(methylsulfonyl)methyl]-1H-indole]
160 | 1600 | 3140 | CSCc1cc(F)cc2c(C3(C4CC4)CCc4cc(F)ccc43)c[nH]c12 (stereo not shown) [Example 94, 3-(1-Cyclopropyl-5-fluoro-2,3-dihydro-1H-inden-1-yl)-5-fluoro-7-[(methylsulfanyl)methyl]-1H-indole]
78 | 2920 | 1980 | CSCc1cc(F)cc2c(C(CCC#N)c3ccc(Cl)cc3)c[nH]c12 (stereo not shown) [Example 43, 4-(4-Chlorophenyl)-4-{5-fluoro-7-[(methylsulfanyl)methyl]-1H-indol-3-yl}butanonitrile]
7 | 3800 | 4310 | CCC(CCC#N)(c1ccc(Cl)cc1)c1c[nH]c2c(CS(C)(=O)=O)cccc12 (single isomer, unassigned) [Enantiomer 172-1, 4-(4-Chlorophenyl)-4-{7-[(methylsulfonyl)methyl]-1H-indol-3-yl}hexanonitrile]
20 | 2160 | 9160 | CS(=O)(=O)Cc1cccc2c(C3(C4CC4)CCc4cc(F)ccc43)c[nH]c12 (single isomer, unassigned) [Example 107-1, 3-(1-Cyclopropyl-5-fluoro-2,3-dihydro-1H-inden-1-yl)-7-[(methylsulfonyl)methyl]-1H-indole]
100 | 5740 | 8880 | C[S+]([O-])Cc1cccc2c(C(c3ccc(F)cc3)c3ccc(Cl)cc3F)c[nH]c12 (mixture of isomers) [Example 130, 3-[(4-Chloro-2-fluorophenyl)(4-fluorophenyl)methyl]-7-[(methylsulfinyl)methyl]-1H-indole]
100 | 5010 | 8560 | CSCc1cccc2c(C(c3ccc(F)cc3)c3ccc(Cl)cc3F)c[nH]c12 (stereo not shown) [Example 104, 3-[(4-Chloro-2-fluorophenyl)(4-fluorophenyl)methyl]-7-[(methylsulfanyl)methyl]-1H-indole]
210 | 6570 | 4810 | C[S+]([O-])Cc1cccc2c(C(c3ccc(Cl)cc3)c3ccc(Cl)cc3)c[nH]c12 (racemic) [Example 296, 3-[Bis(4-chlorophenyl)methyl]-7-[(methylsulfinyl)methyl]-1H-indole]
18 | 3390 | 2140 | CCC(CCC#N)(c1ccc(Cl)cc1)c1c[nH]c2c(CSC)cccc12 (stereo not shown) [Example 157, 4-(4-Chlorophenyl)-4-{7-[(methylsulfanyl)methyl]-1H-indol-3-yl}hexanonitrile]
29 | 4760 | 2720 | CCC(CCC#N)(c1ccc(Cl)cc1)c1c[nH]c2c(C[S+](C)[O-])cccc12 (mixture of isomers) [Example 163, 4-(4-Chlorophenyl)-4-{7-[(methylsulfinyl)methyl]-1H-indol-3-yl}hexanonitrile]
60 | 7090 | 12800 | CS(=O)(=O)Cc1cccc2c(C(CCC#N)c3ccc(Cl)cc3Cl)c[nH]c12 (stereo not shown) [Example 62, 4-(2,4-Dichlorophenyl)-4-{7-[(methylsulfonyl)methyl]-1H-indol-3-yl}butanonitrile]
150 | 8890 | 7910 | C[S+]([O-])Cc1cccc2c(C(CCC#N)c3ccc(Cl)cc3)c[nH]c12 (single isomer, unassigned) [Example 78-4, 4-(4-Chlorophenyl)-4-{7-[(methylsulfinyl)methyl]-1H-indol-3-yl}butanonitrile]
77 | 1940 | 5780 | CSCc1cccc2c(C(C)(c3ccc(C(F)(F)F)cc3)C3CC3C#N)c[nH]c12 (stereo not shown) [Example 177, 2-(1-{7-[(Methylsulfanyl)methyl]-1H-indol-3-yl}-1-[4-(trifluoromethyl)phenyl]ethyl)cyclopropanecarbonitrile]
30 | 2520 | 4500 | CC(c1ccc(Cl)cc1F)(c1c[nH]c2c(CS(C)(=O)=O)cccc12)C1CC1 (single isomer, unassigned) [Example 111-1, 3-[1-(4-Chloro-2-fluorophenyl)-1-cyclopropylethyl]-7-[(methylsulfonyl)methyl]-1H-indole]
190 |  | 10000 | C[S+]([O-])Cc1cccc2c(C(c3c(F)cc(Cl)cc3F)C3CC3)c[nH]c12 (mixture of isomers) [Example 238, 3-[(4-Chloro-2,6-difluorophenyl)(cyclopropyl)methyl]-7-[(methylsulfinyl)methyl]-1H-indole]
400 |  | 6900 | CS(=O)(=O)Cc1cccc2c(C(c3ccc(C(F)(F)F)cc3)C3CC3(F)F)c[nH]c12 (mixture of isomers) [Example 324, 3-{(2,2-Difluorocyclopropyl)[4-(trifluoromethyl)phenyl]methyl}-7-[(methylsulfonyl)methyl]-1H-indole]
